≈ marks a conversion by molar mass, not a printed value. Like-named read-outs stand apart in the source and are kept apart here. Where a SMILES comes first, the peptide text is derived from it.
Tests used:
Experiment in all cases: microbe, parasite or virus in culture
[1] = tested on: E. coli clinical strain 2018XJ105; assay type: cell-based, Escherichia coli
Method: (§1) All the florfenicol-polyarginine conjugates were tested against Gram-positive and Gram-negative bacteria, including MRSA (ATCC 43300), S. aureus (ATCC 25923), E. coli (ATCC 25922), clinical strains of E. coli (2019XJ06, 2019XJ25, 2018XJ108, 2018XJ105, 2018XJ30) and clinical strains of florfenicol resistant E. coli (2017XJ30, 2019XJ20).
(§2) Gram-negative E. coli (ATCC 25922), clinical strains of E. coli (2019XJ06, 2019XJ25, 2018XJ108, 2018XJ105, 2018XJ30) and clinical strains of florfenicol resistant E. coli (2017XJ30, 2019XJ20) and Gram-positive MRSA (ATCC 43300) and S. aureus (ATCC 25923) were maintained in 50% glycerol at −80°C up to the time of use. The bacterial strains were cultured in Muller-Hinton broth (Guangdong Huan Kai Microbial Sci. &Tech. Co., Ltd. in China) media. Mueller-Hinton agar (Guangdong Huan Kai Microbial Sci. & Tech. Co., Ltd. in China) was used as growth medium in solid media.
(§3) CLSI guidelines were followed for determining MICs of all florfenicol-polyarginine conjugates by the broth microdilution method. The required bacterial (E. coli, S. aureus and MRSA) single colony was inoculated into Muller-Hinton broth (MHB) and cultured for 4–6 h. And then, the bacteria were adjusted to 10^6 CFU/ml in cultures. All compounds were prepared into a stock solution at a concentration of 0.1 mol/L with DMSO. The stock solutions were then diluted to required concentration (100, 50, 25, 12.5, 6.25, 3.125, 1.56, 0.78, 0.39 μmol/L) with MHB media. Subsequently, a 96 well plate was filled with these dilutions and 10^6 CFU/ml bacterial suspension. The diluted compounds of different concentrations (100 µl) were first added to 96 well plate, and then 100 µl bacterial dilutions (10^6 CFU/ml) was added. The negative and positive controls were 200 µl of MHB media and 100 µl of bacterial suspension combined with 100 µl of MHB media, respectively. The experiment of each compound was repeated three times, and each experiment was at least twice repeated. The 96 well plates were incubated at 37°C for 16–24 h. MIC indicated antibacterial activity. Florfenicol was used as a control drug.

[2] = tested on: E. coli clinical strain 2018XJ108; assay type: cell-based, Escherichia coli
Method: as §1, §2, §3

[3] = tested on: E. coli clinical strain 2018XJ30; assay type: cell-based, Escherichia coli
Method: as §1, §2, §3

[4] = tested on: E. coli clinical strain 2019XJ06; assay type: cell-based, Escherichia coli
Method: as §1, §2, §3

[5] = tested on: E. coli clinical strain 2019XJ25; assay type: cell-based, Escherichia coli
Method: as §1, §2, §3

E.coli (ATCC 25922) = assay type: cell-based, Escherichia coli
Method: as §1, §2, §3

[6] = tested on: florfenicol resistant E. coli clinical strain 2017XJ30; assay type: cell-based, Escherichia coli
Method: as §1, §2, §3

[7] = tested on: florfenicol resistant E. coli clinical strain 2019XJ20; assay type: cell-based, Escherichia coli
Method: as §1, §2, §3

S. aureus (ATCC 292130) = assay type: cell-based, Staphylococcus aureus
MRSA (ATCC 43300) = assay type: cell-based, methicillin-resistant S. aureus
Method: as §1, §2, §3

[8] = tested on: 10 strains tested (E. coli, S. aureus, MRSA, clinical E. coli strains); assay type: cell-based
Method: as §1, §2, §3

[9] = Escherichia coli, clinical E. coli 2018XJ105, MHB, read-out: MIC
[10] = Escherichia coli, clinical E. coli 2018XJ108, MHB, read-out: MIC
[11] = Escherichia coli, clinical E. coli 2018XJ30, MHB, read-out: MIC
[12] = Escherichia coli, clinical E. coli 2019XJ06, MHB, read-out: MIC
[13] = Escherichia coli, clinical E. coli 2019XJ25, MHB, read-out: MIC
[14] = Escherichia coli, ATCC25922, E.coli (ATCC 25922), MHB, read-out: MIC
[15] = Escherichia coli, florfenicol resistant E. coli 2017XJ30, MHB, read-out: MIC
[16] = Escherichia coli, florfenicol resistant E. coli 2019XJ20, MHB, read-out: MIC
[17] = Staphylococcus aureus, ATCC292130, S. aureus (ATCC 292130), MHB, read-out: MIC
[18] = Staphylococcus aureus, MRSA (ATCC 43300), MHB, read-out: MIC
[19] = Escherichia coli, against the 10 strains tested, read-out: MIC
[20] = florfenicol resistant clinical strain 2017XJ30
[21] = florfenicol resistant clinical strain 2019XJ20

Compound	MIC ([1]; clinical strain 2018XJ105) [µM]	MIC ([2]; clinical strain 2018XJ108) [µM]	MIC ([3]; clinical strain 2018XJ30) [µM]	MIC ([4]; clinical strain 2019XJ06) [µM]	MIC ([5]; clinical strain 2019XJ25) [µM]	MIC (E.coli (ATCC 25922); ATCC 25922) [µM]	MIC [6, 20] [µM]	MIC [7, 21] [µM]	MIC (S. aureus (ATCC 292130); ATCC 292130) [µM]	MIC (MRSA (ATCC 43300); ATCC 43300) [µM]	other results
CS(=O)(=O)c1ccc([C@@H](OC(=O)CCC(=O)O)[C@@H](CF)NC(=O)C(Cl)Cl)cc1 [Compound C1, florfenicol succinate]											MIC [1, 9]: > 100 µM; MIC [2, 10]: > 100 µM; MIC [3, 11]: > 100 µM; MIC [4, 12]: > 100 µM; MIC [5, 13]: > 100 µM; MIC (E.coli (ATCC 25922); [14]): > 100 µM; MIC [6, 15]: > 100 µM; MIC [7, 16]: > 100 µM; MIC (S. aureus (ATCC 292130); [17]): > 100 µM; MIC (MRSA (ATCC 43300); [18]): > 100 µM; MIC [8, 19]: > 100 µM
CS(=O)(=O)c1ccc([C@@H](OC(=O)CCCC(=O)O)[C@@H](CF)NC(=O)C(Cl)Cl)cc1 [Compound C2, florfenicol glutarate]											MIC [1, 9]: > 100 µM; MIC [2, 10]: > 100 µM; MIC [3, 11]: > 100 µM; MIC [4, 12]: > 100 µM; MIC [5, 13]: > 100 µM; MIC (E.coli (ATCC 25922); [14]): > 100 µM; MIC [6, 15]: > 100 µM; MIC [7, 16]: > 100 µM; MIC (S. aureus (ATCC 292130); [17]): > 100 µM; MIC (MRSA (ATCC 43300); [18]): > 100 µM; MIC [8, 19]: > 100 µM
CS(=O)(=O)c1ccc([C@@H](OC(=O)CCCCC(=O)O)[C@@H](CF)NC(=O)C(Cl)Cl)cc1 [Compound C3]											MIC [1, 9]: > 100 µM; MIC [2, 10]: > 100 µM; MIC [3, 11]: > 100 µM; MIC [4, 12]: > 100 µM; MIC [5, 13]: > 100 µM; MIC (E.coli (ATCC 25922); [14]): > 100 µM; MIC [6, 15]: > 100 µM; MIC [7, 16]: > 100 µM; MIC (S. aureus (ATCC 292130); [17]): > 100 µM; MIC (MRSA (ATCC 43300); [18]): > 100 µM; MIC [8, 19]: > 100 µM
COC(=O)[C@@H](N)CCCNC(=N)N [Compound D1]	>100	>100	>100	>100	>100	>100	>100	>100	>100	>100	
N=C(N)NCCC[C@H](N)C(N)=O [Compound D2]	>100	>100	>100	>100	>100	>100	>100	>100	>100	>100	
N=C(N)NCCC[C@H](NC(=O)[C@@H](N)CCCNC(=N)N)C(N)=O [Compound D3] (H-Arg-Arg-NH2)	>100	>100	>100	>100	>100	>100	>100	>100	>100	>100	
N=C(N)NCCC[C@H](NC(=O)[C@H](CCCNC(=N)N)NC(=O)[C@H](CCCNC(=N)N)NC(=O)[C@@H](N)CCCNC(=N)N)C(N)=O [Compound D4] (H-RRRR-NH2)	>100	>100	>100	>100	>100	>100	>100	>100	>100	>100	
N=C(N)NCCC[C@H](NC(=O)[C@H](CCCNC(=N)N)NC(=O)[C@H](CCCNC(=N)N)NC(=O)[C@H](CCCNC(=N)N)NC(=O)[C@H](CCCNC(=N)N)NC(=O)[C@@H](N)CCCNC(=N)N)C(N)=O [Compound D5]	100 (≈ 95.4 µg/mL)	100 (≈ 95.4 µg/mL)	100 (≈ 95.4 µg/mL)	100 (≈ 95.4 µg/mL)	100 (≈ 95.4 µg/mL)	100 (≈ 95.4 µg/mL)	100 (≈ 95.4 µg/mL)	100 (≈ 95.4 µg/mL)	50 (≈ 47.7 µg/mL)	50 (≈ 47.7 µg/mL)	MIC [8]: 25 to 100 µM

Continued, in another order:

MIC ([1]; clinical strain 2018XJ105) [µM]	MIC ([2]; clinical strain 2018XJ108) [µM]	MIC ([3]; clinical strain 2018XJ30) [µM]	MIC ([4]; clinical strain 2019XJ06) [µM]	MIC ([5]; clinical strain 2019XJ25) [µM]	MIC (E.coli (ATCC 25922); ATCC 25922) [µM]	MIC [6, 20] [µM]	MIC [7, 21] [µM]	MIC (S. aureus (ATCC 292130); ATCC 292130) [µM]	MIC (MRSA (ATCC 43300); ATCC 43300) [µM]	Compound	other results
25 (≈ 15.7 µg/mL)	25 (≈ 15.7 µg/mL)	25 (≈ 15.7 µg/mL)	25 (≈ 15.7 µg/mL)	25 (≈ 15.7 µg/mL)	25 (≈ 15.7 µg/mL)	>100	>100	50 (≈ 31.4 µg/mL)	50 (≈ 31.4 µg/mL)	COC(=O)[C@H](CCCNC(=N)N)NC(=O)CCC(=O)O[C@H](c1ccc(S(C)(=O)=O)cc1)[C@@H](CF)NC(=O)C(Cl)Cl [Compound E1]	
25 (≈ 15.3 µg/mL)	25 (≈ 15.3 µg/mL)	25 (≈ 15.3 µg/mL)	25 (≈ 15.3 µg/mL)	25 (≈ 15.3 µg/mL)	25 (≈ 15.3 µg/mL)	>100	>100	25 (≈ 15.3 µg/mL)	25 (≈ 15.3 µg/mL)	CS(=O)(=O)c1ccc([C@@H](OC(=O)CCC(=O)N[C@@H](CCCNC(=N)N)C(N)=O)[C@@H](CF)NC(=O)C(Cl)Cl)cc1 [Compound E2]	
>100	>100	>100	>100	>100	>100	>100	>100	>100	>100	COC(=O)[C@H](CCCNC(=N)N)NC(=O)CCCC(=O)O[C@H](c1ccc(S(C)(=O)=O)cc1)[C@@H](CF)NC(=O)C(Cl)Cl [Compound E7]	
>100	>100	>100	>100	>100	>100	>100	>100	>100	>100	CS(=O)(=O)c1ccc([C@@H](OC(=O)CCCC(=O)N[C@@H](CCCNC(=N)N)C(N)=O)[C@@H](CF)NC(=O)C(Cl)Cl)cc1 [Compound E8]	
>100	>100	>100	>100	>100	>100	>100	>100	>100	>100	COC(=O)[C@H](CCCNC(=N)N)NC(=O)CCCCC(=O)O[C@H](c1ccc(S(C)(=O)=O)cc1)[C@@H](CF)NC(=O)C(Cl)Cl [Compound E13]	
>100	>100	>100	>100	>100	>100	>100	>100	>100	>100	CS(=O)(=O)c1ccc([C@@H](OC(=O)CCCCC(=O)N[C@@H](CCCNC(=N)N)C(N)=O)[C@@H](CF)NC(=O)C(Cl)Cl)cc1 [Compound E14]	

From PMC9284121, “Florfenicol-Polyarginine Conjugates Exhibit Promising Antibacterial Activity Against Resistant Strains” (Frontiers in Chemistry, 2022)
